Test results taken from US11976083B2, “Inhibitors of peptidylarginine deiminases” (Gilead Sciences, Inc., priority 2020, dated 2024).

Target: T1, human PAD4 (Homo sapiens, UniProt Q9UM07)
T1 construct: human PAD4 (NM_012387), A2-P663, was PCR amplified; His-SUMO (N, cleaved yes); made in house; host or cells: E. coli BL21(DE3)
Assay: In vitro PAD4 BAEE biochemical assay
Settings: BAEE substrate 3 mM, 5 nM PAD4, 2 mM calcium chloride; geometric mean of multiple experiments
In short: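 Ammonia produced by BAEE deimination (3 mM substrate, 2 h, 25 °C) was read as fluorescent isoindole after o-phthalaldehyde/DTT derivatization, ex 405 nm/em 535 nm. Human PAD4 at 5 nM final, 2 mM calcium, pH 7.6 MOPS; compound preincubated 30 min. IC50s, normalized to BB-Cl-Amidine and DMSO controls, were geometric-mean averaged.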

T1 sequence (Q9UM07 2-663): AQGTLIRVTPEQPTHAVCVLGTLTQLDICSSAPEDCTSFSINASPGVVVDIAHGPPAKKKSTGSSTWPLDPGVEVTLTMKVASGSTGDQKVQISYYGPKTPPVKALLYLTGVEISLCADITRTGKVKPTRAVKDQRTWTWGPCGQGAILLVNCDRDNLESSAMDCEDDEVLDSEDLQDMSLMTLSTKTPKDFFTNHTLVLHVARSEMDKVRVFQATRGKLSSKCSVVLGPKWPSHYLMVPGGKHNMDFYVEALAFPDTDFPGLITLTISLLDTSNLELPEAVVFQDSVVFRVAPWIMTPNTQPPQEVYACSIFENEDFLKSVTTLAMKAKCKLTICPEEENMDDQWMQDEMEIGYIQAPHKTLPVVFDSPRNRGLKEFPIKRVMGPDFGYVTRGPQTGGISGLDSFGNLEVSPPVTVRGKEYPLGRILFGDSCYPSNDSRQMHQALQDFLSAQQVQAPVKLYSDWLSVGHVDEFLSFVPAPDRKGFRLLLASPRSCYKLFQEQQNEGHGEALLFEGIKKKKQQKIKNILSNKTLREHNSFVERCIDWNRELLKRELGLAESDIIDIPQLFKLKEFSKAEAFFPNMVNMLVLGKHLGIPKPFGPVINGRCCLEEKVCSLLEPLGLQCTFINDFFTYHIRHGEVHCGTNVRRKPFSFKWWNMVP

Row | IC50 [µM] | Compound
1 | 1.12 | COc1cc(C(=O)N[C@H]2CNCC[C@@H]2F)cc2nc(-c3cc4ccc5nc4n3CCCCC[C@@]3(C)C[C@@H]3C(=O)N[C@@H]5C)n(C)c12 [Example 617, 2-[(2~{R},5~{S},7~{S})-2,7-dimethyl-4-oxo-3,13,19-triazatetracyclo[11.5.2.0^ {5,7}.0^{16,20}]icosa-1(19),14,16(20),17-tetraen-14-yl]-~{N}-[(3~ {S},4~{S})-4-fluoro-3-piperidyl]-7-methoxy-1-methyl-benzimidazole-5-carboxamide]
2 | 0.024 | C[C@H]1NC(=O)[C@@H]2C[C@@]2(F)CCCCCn2c(-c3nc4cc(C(=O)N5C[C@H](N)[C@@H]6CC[C@H]5C6)ccc4n3C3CC3)cc3ccc1nc32 [Example 923, (2~{R},5~{S},7~{S})-14-[5-[(1~{S},4~{R},5~{R})-4-amino-2-azabicyclo[3.2.1]octane-2-carbonyl]-1-cyclopropyl-benzimidazol-2-yl]-7-fluoro-2-methyl-3,13,19-triazatetracyclo [11.5.2.0^{5,7}.0^{16,20}] icosa-1(19),14,16(20), 17-tetraen-4-one]
3 | 0.042 | CO[C@@H]1CCN(C(=O)c2cc(Cl)c3c(c2)nc(-c2cc4ccc5nc4n2CC(F)(F)CCC[C@@H]2C[C@H]2C(=O)N[C@@H]5C)n3C2CC2)C[C@@H]1N [Example 806, (2~{R},5~{R},7~{R})-14-[5-[(3~{S},4~{R})-3-amino-4-methoxy-piperidine-1-carbonyl]-7-chloro-1-cyclopropyl-benzimidazol-2-yl]-11,11-difluoro-2-methyl-3,13,19-triazatetracyclo[11.5.2.0^ {5,7}.0^{16,20}] icosa-1(18),14,16,19-tetraen-4-one]
4 | 0.041 | C[C@H]1NC(=O)[C@@H]2C[C@H]2CCCCCn2c(-c3nc4cc(C(=O)N[C@H]5CNCC[C@@H]5F)c(F)cc4n3CCOc3ccccn3)cc3ccc1nc32 [Example 434, 6-fluoro-~{N}-[(3~{S),4~{S})-4-fluoro-3-piperidyl]-2-[(2~{R},5~{R},7~{R})-2-methyl-4-oxo-3,13,19-triazatetracyclo[11.5.2.0^{5,7}.0^{16,20}]icosa-1(19),14,16(20),17-tetraen-14-yl]-1-[2-(2-pyridyloxy)ethyl]benzimidazole-5-carboxamide]
5 | 0.174 | COc1cc(C(=O)N2C[C@H]3CC[C@@H]2[C@@H]3N)cc2nc(-c3cc4ccc5nc4n3CCCCCC[C@@](C)(C(F)(F)F)C(=O)N[C@@H]5C)n(C)c12 [Example 722, (8~{R},11~{R})-17-[5-[(1~{R},4~{R},7~{R})-7-amino-2-azabicyclo [2.2.1]heptane-2-carbonyl]-7-methoxy-1-methyl-benzimidazol-2-yl]-8,11-dimethyl-8-(trifluoromethyl)-1,10,19-triazatricyclo [10.5.2.0^{15,18}]nonadeca-12(19),13,15(18),16-tetraen-9-one]
6 | 0.016 | C[C@@H]1[C@H](N)CCCN1C(=O)c1cc(F)c2c(c1)nc(-c1cc3ccc4nc3n1CC(F)(F)CCC[C@@H]1C[C@H]1C(=O)N[C@@H]4C)n2[C@H]1C[C@@H]1F [Example 835, (2~{R},5~{R},7~{R})-14-[5-[(2~{R},3~{R})-3-amino-2-methyl-piperidine-1-carbonyl]-7-fluoro-1-[(1~{S},2~{S})-2-fluorocyclopropyl]benzimidazol-2-yl]-11,11-difluoro-2-methyl-3,13,19-triazatetracyclo[11.5.2.0^ {5,7}.0^{16,20}] icosa-1(19),14,16(20), 17-tetraen-4-one]
7 | 0.019 | C[C@@H]1[C@H](N)CCCN1C(=O)c1cc(F)c2c(c1)nc(-c1cc3ccc4nc3n1CCCCCc1nc3ccccc3cc1C(=O)N[C@@H]4C)n2C1CC1 [Example 830, (2~{R})-21-[5-[(2~{R}, 3~{R})-3-amino-2-methyl-piperidine-1-carbonyl]-1-cyclopropyl-7-fluoro-benzimidazol-2-yl]-2-methyl-3,13,20,26-tetrazapentacyclo[18.5.2.0^ {5,14}.0^{7,12}.0^ {23,27}]heptacosa-1(26),5(14),6,8,10,12,21, 23(27),24-nonaen-4-one]
8 | 0.006 | Cc1ccc2c(n1)CCCCCn1c(-c3nc4cc(C(=O)N5C[C@H](N)[C@@H]6CC[C@H]5C6)cc(F)c4n3C3CC3)cc3ccc(nc31)[C@@H](C)NC2=O [Example 670, (2~{R})-17-[5-[(1~{S),4~{R}, 5~{R})-4-amino-2-azabicyclo[3.2.1]octane-2-carbonyl]-1-cyclopropyl-7-fluoro-benzimidazol-2-yl]-2,8-dimethyl-3,9,16,22-tetrazatetracyclo[14.5.2.0^ {5,10).0^{19,23}]tricosa-1(22),5(10),6,8,17,19(23), 20-heptaen-4-one]

The next lines start with the molecule.

Row | Compound | IC50 [µM]
9 | COc1cc(C(=O)N2CCC[C@@H](N)C2)cc2nc(-c3cc4ccc5cc4n3CCCCCCNC(=O)c3ccccc3-5)n(C)c12 [Example 51, 17-[5-[(3~{R})-3-aminopiperidine-1-carbonyl]-7-methoxy-1-methyl-benzimidazol-2-yl]-9,16-diazatetracyclo[14.5.2.0^{2,7}.0^{19,23}] tricosa-1(22),2,4,6,17,19(23),20-heptaen-8-one] | 0.215
10 | COc1cc(C(=O)N2CCC[C@@H](N)C2)cc2nc(-c3cc4ccc5nc4n3CCCCCCCCC(=O)N3CCC[C@H]53)n(C)c12 [Example 107, (2~{R})-17-[5-[(3~{R})-3-aminopiperidine-1-carbonyl]-7-methoxy-1-methyl-benzimidazol-2-yl]-6,16,22-triazatetracyclo[14.5.2.0^{2,6}.0^{19,23}] tricosa-1(22),17,19(23),20-tetraen-7-one] | 0.024
11 | COc1cc(C(=O)N2CC[C@@H](C)[C@@H](N)C2)cc2nc(-c3cc4ccc5nc4n3CCCCCCC(C)(C)C(=O)N[C@@H]5C)n(C)c12 [Example 196, (11~{R})-17-[5-[(3~{R},4~{R})-3-amino-4-methyl-piperidine-1-carbonyl]-7-methoxy-1-methyl-benzimidazol-2-yl]-8,8,11-trimethyl-1,10,19-triazatricyclo[10.5.2.0^{15,18}]nonadeca-12(19),13,15(18),16-tetraen-9-one] | 0.116
12 | C[C@H]1NC(=O)C(C)(C)CCCCCCn2c(-c3nc4cc(C(=O)N5CCC[C@@H](N)C5)ccc4n3C3CC3)cc3ccc1nc32 [Example 117, (11~{R})-17-[5-[(3~{R})-3-aminopiperidine-1-carbonyl]-1-cyclopropyl-benzimidazol-2-yl]-8,8,11-trimethyl-1,10,19-triazatricyclo[10.5.2.0^{15,18}]nonadeca-12(19),13,15(18),16-tetraen-9-one] | 0.054
13 | COc1cc(C(=O)N2CC[C@@H]3CCCN[C@@H]3C2)cc2nc(-c3cc4ccc5nc4n3CCCCCCC(C)(C)C(=O)N[C@@H]5C)n(C)c12 (single isomer, unassigned) [Example 262, (11˜{R})-17-[5-[(4˜{a}˜{S},8˜{a}˜{S})-2,3,4,4˜{a},5,6,8,8˜{a}-octahydro-1˜{H}-1,7-naphthyridine-7-carbonyl]-7-methoxy-1-methyl-benzimidazol-2-yl]-8,8,11-trimethyl-1,10,19-triazatricyclo[10.5.2.0^{15,18}]nonadeca-12(19),13,15(18),16-tetraen-9-one] | 4.44
14 | COc1cc(C(=O)N2[C@H]3CC[C@@H]2[C@H](N)C3)cc2nc(-c3cc4ccc5cc4n3CCCCCCC(=O)Nc3ncccc3-5)n(C)c12 [Example 88, 17-[5-[(1˜{R},2˜{R},4˜{S})-2-amino-7-azabicyclo[2.2.1]heptane-7-carbonyl]-7-methoxy-1-methyl-benzimidazol-2-yl]-6,8,16-triazatetracyclo[14.5.2.0^{2,7}.0^{19,23}]tricosa-1(22),2,4,6,17,19(23),20-heptaen-9-one] | 0.097
15 | COc1cc(C(=O)N2[C@H]3CC[C@@H]2[C@H](N)C3)cc2nc(-c3cc4ccc5nc4n3CCCCOCCC(=O)N3CCC[C@H]53)n(C)c12 [Example 132, (2~{R})-16-[5-[(1~{R},2~{R),4~{S})-2-amino-7-azabicyclo[2.2.1]heptane-7-carbonyl]-7-methoxy-1-methyl-benzimidazol-2-yl]-10-oxa-6,15,21-triazatetracyclo[13.5.2.0^{2,6}.0^{18,22}] docosa-1(21),16,18(22),19-tetraen-7-one] | 0.028
16 | COc1cc(C(=O)N2[C@H]3CC[C@@H]2[C@H](N)C3)cc2nc(-c3cc4ccc5nc4n3CCCCCOC(C)(C)C(=O)N[C@@H]5C)n(C)c12 [Example 21, (11~{R})-17-[5-[(1~{R},2~{R},4~{S})-2-amino-7-azabicyclo[2.2.1]heptane-7-carbonyl]-7-methoxy-1-methyl-benzimidazol-2-yl]-8,8,11-trimethyl-7-oxa-1,10,19-triazatricyclo[10.5.2.0^{15,18}]nonadeca-12(19),13,15(18),16-tetraen-9-one] | 0.063
17 | COc1cc(C(=O)N2CC[C@@H](OC)[C@@H](N)C2)cc2nc(-c3cc4ccc5nc4n3CCCCCc3nc(Cl)ccc3C(=O)N[C@@H]5C)n(C)c12 [Example 407, (2~{R})-17-[5-[(3~{S},4~{R})-3-amino-4-methoxy-piperidine-1-carbonyl]-7-methoxy-1-methyl-benzimidazol-2-yl]-8-chloro-2-methyl-3,9,16,22-tetrazatetracyclo[14.5.2.0^{5,10).0^{19,23}] tricosa-1(22),5(10),6,8,17,19(23),20-heptaen-4-one] | 0.07
18 | COc1cc(C(=O)N2[C@H]3CC[C@@H]2[C@H](N)C3)cc2nc(-c3cc4ccc5nc4n3CC[C@H]3C[C@H]3COCCC(=O)N[C@@H]5C)n(C)c12 [Example 338, (4~{R},6~{R},13~{R})-19-[5-[(1~{R},2~{R},4~{S})-2-amino-7-azabicyclo[2.2.1]heptane-7-carbonyl]-7-methoxy-1-methyl-benzimidazol-2-yl]-13-methyl-8-oxa-1,12,21-triazatetracyclo[12.5.2.0^{4,6}.0^{17,20}] henicosa-14(21),15,17(20),18-tetraen-11-one] | 0.053
